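How tested: cells in 96-well plates exposed to compound for 48 hours at five concentrations. The concentration for full growth arrest is given as TGI.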
Key:
Assay in all cases: growth of human tumour cells (NCI), 48 h
COLO 205 colon = test system: COLO 205 colon
U251 CNS = test system: U251 CNS
IGROV1 ovarian = test system: IGROV1 ovarian
SNB-19 CNS = test system: SNB-19 CNS
M14 melanoma = test system: M14 melanoma
NCI-H23 lung = test system: NCI-H23 lung
UACC-62 melanoma = test system: UACC-62 melanoma
SF-295 CNS = test system: SF-295 CNS
HCT-15 colon = test system: HCT-15 colon
SR leukemia = test system: SR leukemia
HS 578T breast = test system: HS 578T breast
MCF7 breast = test system: MCF7 breast
SK-MEL-2 melanoma = test system: SK-MEL-2 melanoma
TK-10 renal = test system: TK-10 renal
OVCAR-8 ovarian = test system: OVCAR-8 ovarian
OVCAR-5 ovarian = test system: OVCAR-5 ovarian
NCI-H226 lung = test system: NCI-H226 lung
RXF 393 renal = test system: RXF 393 renal
DU-145 prostate = test system: DU-145 prostate
T-47D breast = test system: T-47D breast
CCRF-CEM leukemia = test system: CCRF-CEM leukemia
KM12 colon = test system: KM12 colon
RPMI-8226 leukemia = test system: RPMI-8226 leukemia
HT29 colon = test system: HT29 colon
OVCAR-4 ovarian = test system: OVCAR-4 ovarian
MDA-MB-435 = test system: MDA-MB-435
LOX IMVI melanoma = test system: LOX IMVI melanoma
SK-OV-3 ovarian = test system: SK-OV-3 ovarian
786-0 renal = test system: 786-0 renal
MDA-MB-231 breast = test system: MDA-MB-231 breast
HCC-2998 colon = test system: HCC-2998 colon
MOLT-4 leukemia = test system: MOLT-4 leukemia
SF-268 CNS = test system: SF-268 CNS
NCI/ADR-RES ovarian = test system: NCI/ADR-RES ovarian
OVCAR-3 ovarian = test system: OVCAR-3 ovarian
A549 NSCLC = test system: A549 NSCLC
MALME-3M melanoma = test system: MALME-3M melanoma
A498 renal = test system: A498 renal
UACC-257 melanoma = test system: UACC-257 melanoma
BT-549 breast = test system: BT-549 breast
SN12C renal = test system: SN12C renal
NCI-H522 lung = test system: NCI-H522 lung
MDA-N = test system: MDA-N
NCI-H460 lung = test system: NCI-H460 lung
K-562 leukemia = test system: K-562 leukemia
HOP-92 NSCLC = test system: HOP-92 NSCLC
SK-MEL-5 melanoma = test system: SK-MEL-5 melanoma
CAKI-1 renal = test system: CAKI-1 renal
SK-MEL-28 melanoma = test system: SK-MEL-28 melanoma
HCT-116 colon = test system: HCT-116 colon
UO-31 renal = test system: UO-31 renal
SF-539 CNS = test system: SF-539 CNS
SNB-75 CNS = test system: SNB-75 CNS
HOP-62 NSCLC = test system: HOP-62 NSCLC
EKVX NSCLC = test system: EKVX NSCLC
PC-3 prostate = test system: PC-3 prostate
SW-620 colon = test system: SW-620 colon
ACHN renal = test system: ACHN renal
HL-60(TB) leukemia = test system: HL-60(TB) leukemia

Structure (SMILES): COc1cc2c(cc1OCc1ccccc1)NC(=O)[C@@H]1C[C@@H](O)CN1C2=O
- TGI (COLO 205 colon): > 100 µM
- TGI (U251 CNS): > 100 µM
- TGI (IGROV1 ovarian): > 100 µM
- TGI (SNB-19 CNS): > 100 µM
- TGI (M14 melanoma): > 100 µM
- TGI (NCI-H23 lung): > 100 µM
- TGI (UACC-62 melanoma): > 100 µM
- TGI (SF-295 CNS): > 100 µM
- TGI (HCT-15 colon): > 100 µM
- TGI (SR leukemia): > 100 µM
- TGI (HS 578T breast): > 100 µM
- TGI (MCF7 breast): > 100 µM
- TGI (SK-MEL-2 melanoma): > 100 µM
- TGI (TK-10 renal): > 100 µM
- TGI (OVCAR-8 ovarian): > 100 µM
- TGI (OVCAR-5 ovarian): > 100 µM
- TGI (NCI-H226 lung): > 100 µM
- TGI (RXF 393 renal): > 100 µM
- TGI (DU-145 prostate): > 100 µM
- TGI (T-47D breast): > 100 µM
- TGI (CCRF-CEM leukemia): > 100 µM
- TGI (KM12 colon): > 100 µM
- TGI (RPMI-8226 leukemia): > 100 µM
- TGI (HT29 colon): > 100 µM
- TGI (OVCAR-4 ovarian): > 100 µM
- TGI (MDA-MB-435): > 100 µM
- TGI (LOX IMVI melanoma): > 100 µM
- TGI (SK-OV-3 ovarian): > 100 µM
- TGI (786-0 renal): > 100 µM
- TGI (MDA-MB-231 breast): > 100 µM
- TGI (HCC-2998 colon): > 100 µM
- TGI (MOLT-4 leukemia): > 100 µM
- TGI (SF-268 CNS): > 100 µM
- TGI (NCI/ADR-RES ovarian): > 100 µM
- TGI (OVCAR-3 ovarian): > 100 µM
- TGI (A549 NSCLC): > 100 µM
- TGI (MALME-3M melanoma): > 100 µM
- TGI (A498 renal): > 100 µM
- TGI (UACC-257 melanoma): > 100 µM
- TGI (BT-549 breast): > 100 µM
- TGI (SN12C renal): > 100 µM
- TGI (NCI-H522 lung): > 100 µM
- TGI (MDA-N): > 100 µM
- TGI (NCI-H460 lung): > 100 µM
- TGI (K-562 leukemia): > 100 µM
- TGI (HOP-92 NSCLC): > 100 µM
- TGI (SK-MEL-5 melanoma): > 100 µM
- TGI (CAKI-1 renal): > 100 µM
- TGI (SK-MEL-28 melanoma): > 100 µM
- TGI (HCT-116 colon): > 100 µM
- TGI (UO-31 renal): > 100 µM
- TGI (SF-539 CNS): > 100 µM
- TGI (SNB-75 CNS): > 100 µM
- TGI (HOP-62 NSCLC): > 100 µM
- TGI (EKVX NSCLC): > 100 µM
- TGI (PC-3 prostate): > 100 µM
- TGI (SW-620 colon): > 100 µM
- TGI (ACHN renal): > 100 µM

Structure (SMILES): CC(CN(C)C)C(O)(c1ccccc1)c1ccccc1 (configuration not stated)
- TGI (COLO 205 colon): > 100 µM
- TGI (HL-60(TB) leukemia): > 100 µM
- TGI (U251 CNS): > 100 µM
- TGI (IGROV1 ovarian): > 100 µM
- TGI (SNB-19 CNS): > 100 µM
- TGI (M14 melanoma): > 100 µM
- TGI (NCI-H23 lung): > 100 µM
- TGI (UACC-62 melanoma): > 100 µM
- TGI (SF-295 CNS): > 100 µM
- TGI (HCT-15 colon): > 100 µM
- TGI (SR leukemia): > 100 µM
- TGI (HS 578T breast): > 100 µM
- TGI (MCF7 breast): > 100 µM
- TGI (SK-MEL-2 melanoma): > 100 µM
- TGI (TK-10 renal): > 100 µM
- TGI (OVCAR-8 ovarian): > 100 µM
- TGI (OVCAR-5 ovarian): > 100 µM
- TGI (NCI-H226 lung): > 100 µM
- TGI (RXF 393 renal): > 100 µM
- TGI (DU-145 prostate): > 100 µM
- TGI (T-47D breast): > 100 µM
- TGI (CCRF-CEM leukemia): > 100 µM
- TGI (KM12 colon): > 100 µM
- TGI (RPMI-8226 leukemia): > 100 µM
- TGI (HT29 colon): > 100 µM
- TGI (OVCAR-4 ovarian): > 100 µM
- TGI (MDA-MB-435): > 100 µM
- TGI (LOX IMVI melanoma): > 100 µM
- TGI (SK-OV-3 ovarian): > 100 µM
- TGI (786-0 renal): > 100 µM
- TGI (MDA-MB-231 breast): > 100 µM
- TGI (HCC-2998 colon): 93.2 µM
- TGI (MOLT-4 leukemia): > 100 µM
- TGI (SF-268 CNS): > 100 µM
- TGI (NCI/ADR-RES ovarian): > 100 µM
- TGI (OVCAR-3 ovarian): > 100 µM
- TGI (A549 NSCLC): > 100 µM
- TGI (MALME-3M melanoma): > 100 µM
- TGI (A498 renal): > 100 µM
- TGI (UACC-257 melanoma): > 100 µM
- TGI (BT-549 breast): > 100 µM
- TGI (SN12C renal): > 100 µM
- TGI (NCI-H522 lung): > 100 µM
- TGI (MDA-N): > 100 µM
- TGI (NCI-H460 lung): > 100 µM
- TGI (K-562 leukemia): > 100 µM
- TGI (HOP-92 NSCLC): > 100 µM
- TGI (SK-MEL-5 melanoma): > 100 µM
- TGI (CAKI-1 renal): > 100 µM
- TGI (SK-MEL-28 melanoma): > 100 µM
- TGI (HCT-116 colon): > 100 µM
- TGI (UO-31 renal): > 100 µM
- TGI (SF-539 CNS): > 100 µM
- TGI (SNB-75 CNS): > 100 µM
- TGI (HOP-62 NSCLC): > 100 µM
- TGI (EKVX NSCLC): > 100 µM
- TGI (PC-3 prostate): > 100 µM
- TGI (SW-620 colon): > 100 µM
- TGI (ACHN renal): > 100 µM
